# Experimental data reported in patent publication US6319702A, “Nucleic acids encoding mutant human carboxypeptidase A enzymes” (Glaxo Wellcome, Inc., priority 1993, dated 2001).
# Read-outs that look alike come from different tables or passages of the source.
# B1: wild type human carboxypeptidase A1 (Homo sapiens) (protein)
# chain: ARSTDTFNYATYHTLEEIYDFLDLLVAENPHLVSKIQIGNTYEGRPIYVLKFSTGGSKRPAIWIDTGIHSREWVTQASGVWFAKKITQDYGQDAAFTAILDTLDIFLEIVTNPDGFAFTHSTNRMWRKTRSHTAGSLCIGVDPNRNWDAGFGLSGASSNPCSETYHGKFANSEVEVKSIVDFVKDHGNIKAFISIHSYSQLLMYPYGYKTEPVPDQDELDQLSKAAVTALASLYGTKFNYGSIIKAIYQASGSTIDWTYSQGIKYSFTFELRDTGRYGFLLPASQIIPTAKETWLALLTIMEHTLNHPY
# B2: proCPA: procarboxypeptidase A, cleaved to mature CPA with trypsin (protein, UniProt P15085 17-419, looked up)
# pro-form: KEDFVGHQVLRISVADEAQVQKVKELEDLEHLQLDFWRGPAHPGSPIDVRVPFPSIQAVKIFLESHGISYETMIEDVQSLLDEEQEQMFAFRSRARSTDTFNYATYHTLEEIYDFLDLLVAENPHLVSKIQIGNTYEGRPIYVLKFSTGGSKRPAIWIDTGIHSREWVTQASGVWFAKKITQDYGQDAAFTAILDTLDIFLEIVTNPDGFAFTHSTNRMWRKTRSHTAGSLCIGVDPNRNWDAGFGLSGASSNPCSETYHGKFANSEVEVKSIVDFVKDHGNIKAFISIHSYSQLLMYPYGYKTEPVPDQDELDQLSKAAVTALASLYGTKFNYGSIIKAIYQASGSTIDWTYSQGIKYSFTFELRDTGRYGFLLPASQIIPTAKETWLALLTIMEHTLNHPY
# modifications: pro-form
# notes: procarboxypeptidase A, cleaved to mature CPA with trypsin
# Assays:
# [1] = target: T1, wild type human carboxypeptidase A1 (Homo sapiens, UniProt P15085); experiment: Enzyme kinetics of prodrugs with wild type human carboxypeptidase A1 (coupled assay); assay type: biochemical; conditions: for kcat (symbol ND): Human CPA1, rate too slow to assay
# T1 sequence (P15085 111-419): B1 chain
# Description: (§1) As indicated herein, the in vivo stable prodrug of the present invention should be a better substrate for a mutant enzyme than the corresponding wild type enzyme in order for the stable prodrug to be activated selectively at the tumour. […] The most relevant kinetic constant in the table is the kcat/Km, which provides an estimate of the second order rate constant for the enzyme catalyzed conversion of prodrug to methotrexate. Thus, the larger the kcat/Km, the more efficient the enzyme with a particular substrate. […] Thus, the single mutation at 268 from thr to gly converted very poor substrates in the wild type enzyme to excellent substrates in the mutant enzyme. […] Thus, the compounds are much better substrates for the mutant enzyme than the wild type enzyme which permits very specific tumor targeted activation of the nontoxic, stable prodrug to the active agent.
# (§2) Kinetics were determined by a modification of the coupled assay of Kuefner, et al (1989) Biochemistry 28 2288-2297 in which the product MTX is converted by excess carboxypeptidase G to the pteroate of MTX. In this assay the reaction is followed spectrophotometrically at 315 nm; at this wavelength the change in molar absorbtivity for the coupled reaction was determined to be 9.57 mM^-1 cm^-1. Assays were performed at 25° C. in 25 mM tris-HCl, 100 mM NaCl, pH 7.4. Prodrugs were preincubated at 25° C. with buffer and 17 milliunits of Sigma #C-9658 carboxypeptidase G in 1 ml total volume. Assay was initiated with carboxypeptidase A or the appropriate mutant. Initial velocities were obtained, and standard Michaelis-Menten calculations were used to determine kinetic constants (in Biochemistry, Lehninger, A. L. 1970, Worth Publishers, Inc, NY).
# 268ala = experiment: Enzyme kinetics of prodrugs with 268ala mutant of human CPA1 (coupled assay); assay type: biochemical
# Description: as §1, §2
# 268gly = experiment: Enzyme kinetics of prodrugs with 268gly mutant of human CPA1 (coupled assay); assay type: biochemical; conditions: for kcat/Km: 268Gly; for Km / kcat: 268gly, 25° C., pH 7.4
# Description: as §1, §2
# [2] = mouse, in vivo, iv
# in vivo = conditions: mouse, iv
# [3] = Stability and biodistribution of prodrugs in vivo (HPLC of plasma and tissues); set-up: species or system mice (CD-1 nude; BALB/C where indicated)
# mutant enzyme = experiment: Substrate behaviour with mutant enzyme; assay type: biochemical, human
# Description: This type of compound is not useful for ADEPT.
# [4] = Prodrug toxicity, maximum tolerated dose; conditions: Swiss nu/nu mice, IV daily for 5 days
# [5] = IEF of proCPA and mature CPA; assay type: physicochemical
# Protocol: The final OD600 was 14. […] All subsequent buffers contained 0.1 mM Zn-acetate. […] Total protein=368 mg.
# [6] = substrate: CN(Cc1cnc2nc(N)nc(N)c2n1)c1ccc(C(=O)N[C@@H](CCC(=O)O)C(=O)N[C@@H](Cc2ccccc2)C(=O)O)cc1; experiment: Enzyme kinetics of prodrugs with wild type human carboxypeptidase A1 (coupled assay); assay type: biochemical; conditions: other: Human CPA1, 25° C., pH 7.4
# Description: as §1
# (§3) Kinetics were determined by a modification of the coupled assay of Kuefner, et al (1989) Biochemistry 28 2288-2297 in which the product MTX is converted by excess carboxypeptidase G to the pteroate of MTX. In this assay the reaction is followed spectrophotometrically at 315 nm; at this wavelength the change in molar absorbtivity for the coupled reaction was determined to be 9.57 mM^-1 cm^-1. Assays were performed at 25° C. in 25 mM tris-HCl, 100 mM NaCl, pH 7.4. […]
# [7] = substrate: CN(Cc1cnc2nc(N)nc(N)c2n1)c1ccc(C(=O)N[C@@H](CCC(=O)O)C(=O)N[C@@H](Cc2ccccc2C2CCCC2)C(=O)O)cc1; experiment: as above; assay type: biochemical; conditions: other: Human CPA1, 25° C., pH 7.4
# Description: as §1, §3
molecule,measurement,setting,value
CN(Cc1cnc2nc(N)nc(N)c2n1)c1ccc(C(=O)N[C@@H](CCC(=O)O)C(=O)N[C@@H](Cc2cccc(C3CCC3)c2)C(=O)O)cc1,human CPA catalyzed reaction (in words),[1],not measureable
same,kcat/Km for human CPA1 compared with that of the L-phenylalanine prodrug (in words),[1],much lower
same,kcat (symbol ND),[1],ND (not determined; rate to slow assay. kcat ≤ 0.0005/sec.)
same,Km,"268ala; 25° C., pH 7.4",160 µM
same,kcat,"268ala; 25° C., pH 7.4",0.12 s⁻¹
same,kcat/Km,268gly,1.8e+06 M⁻¹ s⁻¹
same,activity of 268Gly relative to CPA1 with the L-phenylalanine prodrug of MTX,268gly; 268Gly with prodrug vs human CPA1 with L-phenylalanine prodrug,4 times
same,Km,268gly,1.8 µM
same,kcat,268gly,3 s⁻¹
same,dose showing some toxicity,[2],30 mg/kg
same,MTD,in vivo,< 30 mg/kg
"CN(Cc1cnc2nc(N)nc(N)c2n1)c1ccc(C(=O)N[C@@H](CCC(=O)O)C(=O)N[C@@H](Cc2cccc(C(C)(C)C)c2)C(=O)O)cc1 [Prodrug 12, N-(4-(((2,4-diamino-6-pterdinyl)methyl)methylamino)benzoyl)-L-glutam-1-yl-3-tert-butyl-L-phenylalanine]",concentration of prodrug in cecum,"[3]; CECUM, 30 min, 50 mg/kg i.p. or i.v., CD-1 nude mice",16.3 nmol/g
same,concentration of prodrug in cecum,"[3]; CECUM, 120 min, 50 mg/kg i.p. or i.v., CD-1 nude mice",402.3 nmol/g
same,concentration of prodrug in feces,"[3]; FECES, 30 min, 50 mg/kg i.p. or i.v., CD-1 nude mice",1205 nmol/g
same,concentration of prodrug in feces,"[3]; FECES, 120 min, 50 mg/kg i.p. or i.v., CD-1 nude mice",1941 nmol/g
same,concentration of prodrug in kidney,"[3]; KIDNEY, 30 min, 50 mg/kg i.p. or i.v., CD-1 nude mice",2.2 nmol/g
same,concentration of prodrug in kidney,"[3]; KIDNEY, 120 min, 50 mg/kg i.p. or i.v., CD-1 nude mice",0.2 nmol/g
same,concentration of prodrug in large intestine,"[3]; LARGE INTESTINE, 120 min, 50 mg/kg i.p. or i.v., CD-1 nude mice",14.7 nmol/g
same,concentration of prodrug in liver,"[3]; LIVER, 30 min, 50 mg/kg i.p. or i.v., CD-1 nude mice",58.6 nmol/g
same,concentration of prodrug in liver,"[3]; LIVER, 120 min, 50 mg/kg i.p. or i.v., CD-1 nude mice",39.5 nmol/g
same,concentration of prodrug in small intestine,"[3]; SMALL INTESTINE, 30 min, 50 mg/kg i.p. or i.v., CD-1 nude mice",550.8 nmol/g
same,concentration of prodrug in small intestine,"[3]; SMALL INTESTINE, 120 min, 50 mg/kg i.p. or i.v., CD-1 nude mice",44.9 nmol/g
same,concentration of prodrug in tumor,"[3]; TUMOR, 30 min, 50 mg/kg i.p. or i.v., CD-1 nude mice",1.6 nmol/g
same,stability in vivo (in words),"[3]; mice, 50 mg/kg",stable in vivo
same,remaining at 0.5 h,"[3]; mouse, cecum, 50 mg/kg, CECUM, 30 min, 50 mg/kg i.p. or i.v., CD-1 nude mice, read-out: stability: percentage of material observed as intact prodrug, cecum",100%
same,remaining at 2 h,"[3]; mouse, cecum, 50 mg/kg, CECUM, 120 min, 50 mg/kg i.p. or i.v., CD-1 nude mice, read-out: stability: percentage of material observed as intact prodrug, cecum",80.7%
same,remaining at 0.5 h,"[3]; mouse, feces, 50 mg/kg, FECES, 30 min, 50 mg/kg i.p. or i.v., CD-1 nude mice, read-out: stability: percentage of material observed as intact prodrug, feces (converted)",93%
same,remaining at 2 h,"[3]; mouse, feces, 50 mg/kg, FECES, 120 min, 50 mg/kg i.p. or i.v., CD-1 nude mice, read-out: stability: percentage of material observed as intact prodrug, feces",82%
same,remaining at 0.5 h,"[3]; mouse, kidney, 50 mg/kg, KIDNEY, 30 min, 50 mg/kg i.p. or i.v., CD-1 nude mice, read-out: stability: percentage of material observed as intact prodrug, kidney",53.4%
same,remaining at 2 h,"[3]; mouse, kidney, 50 mg/kg, KIDNEY, 120 min, 50 mg/kg i.p. or i.v., CD-1 nude mice, read-out: stability: percentage of material observed as intact prodrug, kidney",21.6%
same,remaining at 2 h,"[3]; mouse, large intestine, 50 mg/kg, LARGE INTESTINE, 120 min, 50 mg/kg i.p. or i.v., CD-1 nude mice, read-out: stability: percentage of material observed as intact prodrug, large intestine",66.9%
same,remaining at 0.5 h,"[3]; mouse, liver, 50 mg/kg, LIVER, 30 min, 50 mg/kg i.p. or i.v., CD-1 nude mice, read-out: stability: percentage of material observed as intact prodrug, liver (converted)",91.3%
same,remaining at 2 h,"[3]; mouse, liver, 50 mg/kg, LIVER, 120 min, 50 mg/kg i.p. or i.v., CD-1 nude mice, read-out: stability: percentage of material observed as intact prodrug, liver",89.2%
same,concentration at 0.5 h,"[3]; mouse, plasma, 50 mg/kg, PLASMA, 30 min, 50 mg/kg i.p. or i.v., CD-1 nude mice, read-out: concentration of prodrug in plasma",2600 nM
same,remaining at 0.5 h,"[3]; mouse, plasma, 50 mg/kg, PLASMA, 30 min, 50 mg/kg i.p. or i.v., CD-1 nude mice, read-out: stability: percentage of material observed as intact prodrug, plasma",100%
same,concentration at 2 h,"[3]; mouse, plasma, 50 mg/kg, PLASMA, 120 min, 50 mg/kg i.p. or i.v., CD-1 nude mice, read-out: concentration of prodrug in plasma",700 nM
same,remaining at 2 h,"[3]; mouse, plasma, 50 mg/kg, PLASMA, 120 min, 50 mg/kg i.p. or i.v., CD-1 nude mice, read-out: stability: percentage of material observed as intact prodrug, plasma",100%
same,remaining at 0.5 h,"[3]; mouse, small intestine, 50 mg/kg, SMALL INTESTINE, 30 min, 50 mg/kg i.p. or i.v., CD-1 nude mice, read-out: stability: percentage of material observed as intact prodrug, small intestine",91%
same,remaining at 2 h,"[3]; mouse, small intestine, 50 mg/kg, SMALL INTESTINE, 120 min, 50 mg/kg i.p. or i.v., CD-1 nude mice, read-out: stability: percentage of material observed as intact prodrug, small intestine",67%
same,remaining at 0.5 h,"[3]; mouse, tumor, 50 mg/kg, TUMOR, 30 min, 50 mg/kg i.p. or i.v., CD-1 nude mice, read-out: stability: percentage of material observed as intact prodrug, tumor",92.8%
same,human CPA catalyzed reaction (in words),[1],not measureable
same,kcat/Km for human CPA1 compared with that of the L-phenylalanine prodrug (in words),[1],much lower
same,substrate for wild type CPA (in words),[1],not for the wild type enzyme
same,kcat (symbol ND),[1],ND (not determined; rate to slow assay. kcat ≤ 0.0005/sec.)
same,kcat (symbol ND),268ala; rate too slow to assay,ND (not determined; rate to slow assay. kcat ≤ 0.0005/sec.)
same,activity of 268Gly compared with human CPA1 with the L-phenylalanine prodrug (in words),268gly,not different
same,kcat/Km,268gly,380000 M⁻¹ s⁻¹
same,Km,268gly,2.1 µM
same,kcat,268gly,0.81 s⁻¹
same,substrate for a mutant enzyme (in words),mutant enzyme,good substrates for a mutant enzyme
same,MTD,in vivo,> 40 mg/kg
same,NOAEL,in vivo,≥ 40 mg/kg
"CN(Cc1cnc2nc(N)nc(N)c2n1)c1ccc(C(=O)N[C@@H](CCC(=O)O)C(=O)O)cc1 [methotrexate, reference compound]",MTD,in vivo,4 mg/kg
same,maximum tolerated dose (MTD),[4],2.5 mg/kg
B1,pI,[5],6.2
same,Km,[6],4.3 µM
same,Km,[7],61 µM
B2,pI,[5],4.75
